Patent US12208088B2 (Genentech, Inc., priority 2018, dated 2025)

Biological target: HPK1 (Homo sapiens (Human), UniProt Q92918)
Experiment: HPK1 Lantha binding assay ("Lanth")
Conditions: binding assays; Morrison Ki fit
Description: Example B2: HPK1 Lantha Binding Assay (“Lanth”)
Procedure: I. Compound Dilution:
The compounds to be tested were diluted by preparing 12.5 uL/well of 5 mM compound (100×) in columns 2 and 13 and 10 ul/well of DMSO in columns 3-12, 14-23, and wells A1-H1 and I24-P24 of the compound plate using a Bravo liquid handling platform. For the reference compound, the top concentration was 1 mM. To the plate was added 10 ul 2 mM staurosporine in wells J1-P1 and A24-H24. A 11 point 5-fold compound serial dilution was performed using the Bravo liquid handling platform. From the plate were transferred 2.5 ul of the solutions from column 2 and column 13 to the 10 ul of DMSO in columns 3 and 14 & so on. The compound plate was centrifuged at 2500 rpm for 1 min. From the compound plate was transferred 80 nl of the compounds into an assay plate using the Echo liquid handler system. One compound plate makes two assay plates. Each assay plate is sealed and stored in an N2 cabinet.
The following assay concentrations and times were used: 2 nM HPK1, 2 nM Eu-Anti-GST Ab, and 15 nM Tracer222, with 60 min incubation time.
III. HPK Lantha Binding Assay:
For the binding assay, 4 ul 2×HPK1 and Eu-anti-GST antibody were added to each well of the assay plate using a Multidrop reagent dispenser. The solutions were incubated in a 23 C incubator for 1 h. To each well of the assay plate was added 4 ul 2× Tracer-222 using a Multidrop reagent dispenser. The solutions were again incubated in a 23 C incubator for 1 h. The results of the assay were read using an Envision plate reader with the following parameters: TR_FRET, 340 ex/615 and 665em; 100 usec Delay; and 200 usec integration.
Compound Ki was analyzed using Morrison ki fit model in XL-fit • a. fit=(1−((((E+x)+(Ki*(1+(S/Kd))))−(((((E+x)+(Ki*(1+(S/Kd))))^2)−((4*E)*x))^0.5))/(2*E))) • res=(y−fit) • b. Parameters: • E=enzyme concentration • S=Tracer222 concentration, Kd=Tracer222 Kd • All measurements reported using the same units (uM)
Exemplary compounds were tested in the binding assays.

Chain of HPK1 (Q92918 1-346 limits assumed): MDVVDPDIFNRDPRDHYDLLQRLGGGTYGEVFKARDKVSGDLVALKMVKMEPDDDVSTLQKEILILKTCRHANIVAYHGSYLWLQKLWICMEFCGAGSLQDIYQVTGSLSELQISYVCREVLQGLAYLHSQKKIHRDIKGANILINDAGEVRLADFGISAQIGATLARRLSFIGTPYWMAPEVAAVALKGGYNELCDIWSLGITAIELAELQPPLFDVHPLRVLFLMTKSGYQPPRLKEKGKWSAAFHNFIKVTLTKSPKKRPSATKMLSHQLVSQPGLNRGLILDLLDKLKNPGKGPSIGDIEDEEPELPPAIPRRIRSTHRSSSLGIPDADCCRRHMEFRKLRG

Row | Molecule | Ki
1 | 1-(3-(1′,2′-Dihydrospiro[cyclopropane-1,3′-pyrrolo[2,3-b]pyridin]-5′-yl)phenyl)piperazin-2-one [Compound 41] | 103 nM
2 | O=C1NCCC1c1nc2ccc(-c3cnc4c(c3Cl)C3(CC3)CN4)cc2[nH]1 (racemic) [Compound 283, (±)-3-(6-(4′-Chloro-1′,2′-dihydrospiro[cyclopropane-1,3′-pyrrolo[2,3-b]pyridin]-5′-yl)-1H-benzo[d]imidazol-2-yl)pyrrolidin-2-one] | 74.2 nM
3 | CO[C@@H]1CC[C@@]2(CNc3ncc(-c4ccc(N)c(C(=O)N(C)C)c4F)c(Cl)c32)C1 (relative stereo) [Compound 81a, 6-Amino-3-((1R,3R)-4′-chloro-3-methoxy-1′,2′-dihydrospiro[cyclopentane-1,3′-pyrrolo[2,3-b]pyridin]-5′-yl)-2-fluoro-N,N-dimethylbenzamide] | 39.6 nM
4 | CO[C@H]1CC[C@@]2(CNc3ncc(-c4ccc(N)c(C(=O)N(C)C)c4F)c(Cl)c32)C1 (relative stereo) [Compound 81c, 6-Amino-3-((1R,3S)-4′-chloro-3-methoxy-1′,2′-dihydrospiro[cyclopentane-1,3′-pyrrolo[2,3-b]pyridin]-5′-yl)-2-fluoro-N,N-dimethylbenzamide] | 17.7 nM
5 | CN(C)C(=O)c1c(N)ccc(-c2cnc3c(c2Cl)[C@]2(CC[C@](C)(O)C2)CN3)c1F (relative stereo) [Compound 82a, 6-Amino-3-((1R,3S)-4′-chloro-3-hydroxy-3-methyl-1′,2′-dihydrospiro[cyclopentane-1,3′-pyrrolo[2,3-b]pyridin]-5′-yl)-2-fluoro-N,N-dimethylbenzamide] | 8.12 nM
6 | CN(C)C(=O)c1c(N)ccc(-c2cnc3c(c2Cl)[C@]2(CC[C@@H](C(N)=O)C2)CN3)c1F (relative stereo) [Compound 84a, (1R,3R)-5′-(4-amino-3-(dimethylcarbamoyl)-2-fluorophenyl)-4′-chloro-1′,2′-dihydrospiro[cyclopentane-1,3′-pyrrolo[2,3-b]pyridine]-3-carboxamide] | 25.9 nM
7 | CN(C)C(=O)c1c(N)ccc(-c2cnc3c(c2Cl)[C@]2(CC[C@H](C(N)=O)C2)CN3)c1F (relative stereo) [Compound 84c, (1R,3S)-5′-(4-amino-3-(dimethylcarbamoyl)-2-fluorophenyl)-4′-chloro-1′,2′-dihydrospiro[cyclopentane-1,3′-pyrrolo[2,3-b]pyridine]-3-carboxamide] | 2.07 nM
8 | C[C@H]1C[C@@]12CNc1ncc(-c3ccc(N)c(C(=O)N(C)C)c3F)cc12 (relative stereo) [Compound 86a, 6-Amino-2-fluoro-N,N-dimethyl-3-((1R,2S)-2-methyl-1′,2′-dihydrospiro[cyclopropane-1,3′-pyrrolo[2,3-b]pyridin]-5′-yl)benzamide] | 7.9 nM
9 | CN(C)C(=O)c1c(N)ccc(-c2cnc3c(c2Cl)[C@]2(CC[C@H](n4nccn4)C2)CN3)c1F (relative stereo) [Compound 89a, 6-Amino-3-((1R,3S)-4′-chloro-3-(2H-1,2,3-triazol-2-yl)-1′,2′-dihydrospiro[cyclopentane-1,3′-pyrrolo[2,3-b]pyridin]-5′-yl)-2-fluoro-N,N-dimethylbenzamide] | 6 nM
10 | CN(C)C(=O)c1c(N)ccc(-c2cnc3c(c2Cl)[C@]2(CC[C@H](C#N)C2)CN3)c1F (relative stereo) [Compound 91a, 6-Amino-3-((1R,3S)-4′-chloro-3-cyano-1′,2′-dihydrospiro[cyclopentane-1,3′-pyrrolo[2,3-b]pyridin]-5′-yl)-2-fluoro-N,N-dimethylbenzamide] | 5.53 nM
11 | CNC(=O)[C@H]1CC[C@@]2(CNc3ncc(-c4ccc(N)c(C(=O)N(C)C)c4F)c(Cl)c32)C1 (relative stereo) [Compound 98a, (1R,3S)-5′-(4-Amino-3-(dimethylcarbamoyl)-2-fluorophenyl)-4′-chloro-N-methyl-1′,2′-dihydrospiro[cyclopentane-1,3′-pyrrolo[2,3-b]pyridine]-3-carboxamide] | 75.6 nM
12 | CN(C)C(=O)c1c(N)ccc(-c2cnc3c(c2Cl)[C@]2(CC[C@H](C(=O)NCCO)C2)CN3)c1F (relative stereo) [Compound 106a, (1R,3S)-5′-(4-Amino-3-(dimethylcarbamoyl)-2-fluorophenyl)-4′-chloro-N-(2-hydroxyethyl)-1′,2′-dihydrospiro[cyclopentane-1,3′-pyrrolo[2,3-b]pyridine]-3-carboxamide] | 23.6 nM
13 | Cc1noc([C@H]2CC[C@@]3(CNc4ncc(-c5ccc(N)c(C(=O)N(C)C)c5F)c(Cl)c43)C2)n1 (relative stereo) [Compound 108a, 6-Amino-3-((1R,3S)-4′-chloro-3-(3-methyl-1,2,4-oxadiazol-5-yl)-1′,2′-dihydrospiro[cyclopentane-1,3′-pyrrolo[2,3-b]pyridin]-5′-yl)-2-fluoro-N,N-dimethylbenzamide] | 8.27 nM
14 | CN(C)C(=O)c1c(N)ccc(-c2cnc3c(c2Cl)[C@]2(CC[C@@](O)(CC#N)C2)CN3)c1F (relative stereo) [Compound 109c, 6-Amino-3-((1R,3S)-4′-chloro-3-(cyanomethyl)-3-hydroxy-1′,2′-dihydrospiro[cyclopentane-1,3′-pyrrolo[2,3-b]pyridin]-5′-yl)-2-fluoro-N,N-dimethylbenzamide] | 32.5 nM
15 | Cc1cnn([C@H]2CC[C@@]3(CNc4ncc(-c5ccc(N)c(C(=O)N(C)C)c5F)c(Cl)c43)C2)n1 (relative stereo) [Compound 114a, 6-Amino-3-((1R,3S)-4′-chloro-3-(4-methyl-2H-1,2,3-triazol-2-yl)-1′,2′-dihydrospiro[cyclopentane-1,3′-pyrrolo[2,3-b]pyridin]-5′-yl)-2-fluoro-N,N-dimethylbenzamide] | 2.84 nM
16 | CN(C)C(=O)c1c(N)ccc(-c2cnc3c(c2Cl)[C@]2(CC[C@H](N4CCNC4=O)C2)CN3)c1F (relative stereo) [Compound 115a, 6-Amino-3-((1R,3S)-4′-chloro-3-(2-oxoimidazolidin-1-yl)-1′,2′-dihydrospiro[cyclopentane-1,3′-pyrrolo[2,3-b]pyridin]-5′-yl)-2-fluoro-N,N-dimethylbenzamide] | 23 nM
17 | CN(C)C(=O)c1c(N)ccc(-c2cnc3c(c2Cl)[C@]2(CC[C@@](O)(Cn4cncn4)C2)CN3)c1F (relative stereo) [Compound 116a] | 153 nM
18 | CN(C)C(=O)c1c(N)ccc(-c2cnc3c(c2Cl)[C@]2(CC[C@@](O)(Cn4ccnc4)C2)CN3)c1F (relative stereo) [Compound 117a, 3-((1R,3S)-3-((1H-Imidazol-1-yl)methyl)-4′-chloro-3-hydroxy-1′,2′-dihydrospiro[cyclopentane-1,3′-pyrrolo[2,3-b]pyridin]-5′-yl)-6-amino-2-fluoro-N, N-dimethylbenzamide] | 247 nM
19 | CN(C)C(=O)c1c(N)ccc(-c2cnc3c(c2Cl)[C@]2(CC[C@H](n4cnc(N)n4)C2)CN3)c1F (relative stereo) [Compound 119a, 6-Amino-3-((1R,3S)-3-(3-amino-1H-1,2,4-triazol-1-yl)-4′-chloro-1′,2′-dihydrospiro[cyclopentane-1,3′-pyrrolo[2,3-b]pyridin]-5′-yl)-2-fluoro-N,N-dimethylbenzamide] | 76.8 nM
20 | CN(C)C(=O)c1c(N)ccc(-c2cnc3c(c2Cl)[C@]2(CC[C@H](N4CCOCC4)C2)CN3)c1F (relative stereo) [Compound 120a, 6-Amino-3-((1R,3S)-4′-chloro-3-morpholino-1′,2′-dihydrospiro[cyclopentane-1,3′-pyrrolo[2,3-b]pyridin]-5′-yl)-2-fluoro-N,N-dimethylbenzamide] | 479 nM
21 | CN(C)C(=O)c1c(N)ccc(-c2cnc3c(c2Cl)[C@]2(CC[C@H](N4CCCC4)C2)CN3)c1F (relative stereo) [Compound 121a, 6-Amino-3-((1R,3S)-4′-chloro-3-(pyrrolidin-1-yl)-1′,2′-dihydrospiro[cyclopentane-1,3′-pyrrolo[2,3-b]pyridin]-5′-yl)-2-fluoro-N,N-dimethylbenzamide] | 381 nM
22 | CN(C)C(=O)c1c(N)ccc(-c2cnc3c(c2Cl)[C@]2(CC[C@H](N4CCOC4=O)C2)CN3)c1F (relative stereo) [Compound 124a, 6-Amino-3-((1R,3S)-4′-chloro-3-(2-oxooxazolidin-3-yl)-1′,2′-dihydrospiro[cyclopentane-1,3′-pyrrolo[2,3-b]pyridin]-5′-yl)-2-fluoro-N,N-dimethylbenzamide] | 35 nM
23 | Cc1cnn([C@H]2CC[C@@]3(CNc4ncc(-c5ccc(N)c(C(=O)N(C)C)c5F)c(Cl)c43)C2)c1 (relative stereo) [Compound 125a, 6-Amino-3-((1R,3S)-4′-chloro-3-(4-methyl-1H-pyrazol-1-yl)-1′,2′-dihydrospiro[cyclopentane-1,3′-pyrrolo[2,3-b]pyridin]-5′-yl)-2-fluoro-N,N-dimethylbenzamide] | 3.56 nM
